US20260013504A1, “HERBICIDAL MIXTURE, HERBICIDAL COMPOSITION, METHOD, USE, AND KITS FOR CONTROLLING UNDESIRABLE VEGETATION” (ADAMA AGAN LTD., priority 2022, published 2026)

What was measured:
Type in all cases: in vivo
Aegilops tauschii = assay: Pot experiment, soil treatment, control of Aegilops tauschii (fresh weight, Colby); details: mixtures: both AIs at these rates, after 35 days
From the text: (§1) Referring to an article of Colby, S. R. i.e., Calculation of the synergistic and antagonistic response of herbicide combinations.
E0 is the theoretical fresh weight survival rate for the mixture of pyroxasulfone and the second herbicide selected from the group consisting of fluorochloridone, aclonifen, diflufenican and terbutryn;
X is the measured fresh weight survival rate for pyroxasulfone used alone at the same dosage as that in the mixture;
Y is the measured fresh weight survival rate for the second herbicide selected from the group consisting of fluorochloridone, aclonifen, diflufenican and terbutryn used alone at the same dosage as that in the mixture;
E is the measured fresh weight survival rate for the mixture of pyroxasulfone and the second herbicide selected from the group consisting of fluorochloridone, aclonifen, diflufenican and terbutryn.
(§2) E0-E value is calculated to evaluate the combined effect of pyroxasulfone and the second herbicide selected from the group consisting of fluorochloridone, aclonifen, diflufenican and terbutryn on the selected weeds.
(§3) In this Example, the herbicidal activity of treatments by a mixture of pyroxasulfone and the second herbicide selected from the group consisting of fluorochloridone, aclonifen, diflufenican and terbutryn for controlling Aegilops tauschii was investigated by a pot experiment. This Example was carried out in accordance with “NY/T 1155.4-2006 Guidelines for Indoor Bioassay Tests of Pesticides, Herbicides Part 4: Activity Determination Tests, Stem and Leaf Spray Method”. • Source of the agrochemicals tested were: • Pyroxasulfone: pyroxasulfone (850g/Kg, WG) from Adama Agan LTD. • Fluorochloridone: fluorochloridone (250 g/L, EC) from Adama Agan LTD. • Aclonifen: aclonifen (600 g/L, SC) from Adama Agan LTD. • Diflufenican: diflufenican (50g/Kg, WP) from Bayer. • Terbutryn: terbutryn (50g/Kg, SC) from Zhejiang Zhongshan Chemical Industry Group Co., Ltd. • Cultivation of test materials: The test soil was formed by mixing the 20 cm layer loam on the ground surface and the culture medium in a ratio of 3:1 as cultivation soil. Weeds were cultivated in an artificial climate chamber. The daytime and nighttime temperatures were set at 22° C. and 19° C., respectively, and the illumination was set at daytime: dark time 12h: 12h.
(§4) A certain amount of Aegilops tauschii seeds were sown in a plastic pot with a diameter of 9 cm, covering with 1-2 mm soil, and putting them in an enamel dish filled with water. The bottom infiltration method was used to water them, the agrochemicals tested in this Example were applied on the second day after sowing Aegilops tauschii seeds.
(§5) Spraying treatment: ASS-4 automatic control spraying system with a fan-shaped nozzle was used indoors to spray the agrochemicals, the running speed was adjusted based on nozzle pressure, flow rate, etc. to spray 50 mL of liquid of agrochemicals on the actual spray area of 1.1 m2 (equivalent to 30 liters per mu), arranging the plastic pots to be processed on the spraying table evenly, and spraying evenly. The spraying pressure was 0.35 MPa, and the flow rate of the fan-shaped nozzle was 800 mL/min, spraying in order from low dosage to high dosage. Each treatment was repeated 3 times. After spraying, the plastic pots were dried for one day, placed in an artificial climate chamber, and watered regularly to keep moist.
(§6) Weed investigation method and time: after applying the agrochemicals, the symptoms of weed damage (such as growth inhibition, chlorosis, deformity, etc.) were recorded in detail. After 35 days, the fresh weight of aerial part of the weeds in each treatment was weighed, and the measured fresh weight inhibition rate and the measured fresh weight survival rate for each treatment were calculated according to the following equations: […]

Lolium multiflorum Lamk = assay: Pot experiment, soil treatment, control of Lolium multiflorum Lamk (fresh weight, Colby); details: mixtures: both AIs at these rates, after 35 days
Description: as §1, §2, §3, §4, §5, §6
Example 2 was conducted in substantially the same way as Example 1, except that Lolium multiflorum Lamk was used instead of Aegilops tauschii.

Bromus japonicus = assay: Pot experiment, soil treatment, control of Bromus japonicus (fresh weight, Colby); details: mixtures: both AIs at these rates, after 35 days
Description: as §1, §2, §3, §4, §5, §6
Example 3 was conducted in substantially the same way as Example 1, except that Bromus japonicus was used instead of Aegilops tauschii.

Galium aparine = assay: Pot experiment, soil treatment, control of Galium aparine (fresh weight, Colby)
Description: as §1, §2, §3, §4, §5, §6
Example 4 was conducted substantially the same way as Example 1, except that Galium aparine was used instead of Aegilops tauschii.

Lithospermum arvense = assay: Pot experiment, soil treatment, control of Lithospermum arvense (fresh weight, Colby)
Description: as §1, §2, §3, §4, §5, §6
Example 5 was conducted substantially the same way as Example 1, except that Lithospermum arvense was used instead of Aegilops tauschii.

Solanum nigrum = assay: Pot experiment (glass greenhouse), soil treatment, control of Solanum nigrum (fresh weight, Colby)
Description: as §1, §2, §3, §4, §5, §6
Example 6 was substantially conducted in the same as Example 1, except that (1) Solanum nigrum was used instead of Aegilops tauschii, (2) in “Cultivation of test materials” part, Solanum nigrum was cultivated in a glass greenhouse instead of an artificial climate chamber at a temperature of 25 to 33° C. with a natural illumination, and (3) in “Spraying treatment” part, after spraying and drying, the plastic pots were placed in a glass greenhouse instead of an artificial climate chamber.

[1] = g ai/ha: pyroxasulfone 11.25, fluorochloridone 31.25, aclonifen 150, diflufenican 14.0625, terbutryn 140.625
[2] = g ai/ha: pyroxasulfone 22.5, fluorochloridone 62.5, aclonifen 300, diflufenican 28.125, terbutryn 281.25
[3] = g ai/ha: pyroxasulfone 45, fluorochloridone 125, aclonifen 600, diflufenican 56.25, terbutryn 562.5
[4] = g ai/ha: pyroxasulfone 90, fluorochloridone 250, aclonifen 1200, diflufenican 112.5, terbutryn 1125
[5] = g ai/ha: pyroxasulfone 180, fluorochloridone 500, aclonifen 2400, diflufenican 225, terbutryn 2250
[6] = g ai/ha: pyroxasulfone 360, fluorochloridone 1000, aclonifen 4800, diflufenican 450, terbutryn 4500

Substance: 3-chloro-4-(chloromethyl)-1-(3-(trifluoromethyl)phenyl)-2-pyrrolidione [fluorochloridone]
- Measured fresh weight inhibition rate (%) (Aegilops tauschii; [1]): 0.0%
- Measured fresh weight survival rate (%) - E (Aegilops tauschii; [1]): 100.0%
- Measured fresh weight inhibition rate (%) (Aegilops tauschii; [2]): 7.9%
- Measured fresh weight survival rate (%) - E (Aegilops tauschii; [2]): 92.1%
- Measured fresh weight inhibition rate (%) (Aegilops tauschii; [3]): 11.0%
- Measured fresh weight survival rate (%) - E (Aegilops tauschii; [3]): 89.0%
- Measured fresh weight inhibition rate (%) (Aegilops tauschii; [4]): 49.4%
- Measured fresh weight survival rate (%) - E (Aegilops tauschii; [4]): 50.6%
- Measured fresh weight inhibition rate (%) (Aegilops tauschii; [5]): 79.3%
- Measured fresh weight survival rate (%) - E (Aegilops tauschii; [5]): 20.7%
- Measured fresh weight inhibition rate (%) (Aegilops tauschii; [6]): 93.9%
- Measured fresh weight survival rate (%) - E (Aegilops tauschii; [6]): 6.1%
- Measured fresh weight inhibition rate (%) (Lolium multiflorum Lamk; [1]): 93.2%
- Measured fresh weight survival rate (%) - E (Lolium multiflorum Lamk; [1]): 6.8%
- Measured fresh weight inhibition rate (%) (Lolium multiflorum Lamk; [2]): 96.4%
- Measured fresh weight survival rate (%) - E (Lolium multiflorum Lamk; [2]): 3.6%
- Measured fresh weight inhibition rate (%) (Lolium multiflorum Lamk; [3]): 98.4%
- Measured fresh weight survival rate (%) - E (Lolium multiflorum Lamk; [3]): 1.6%
- Measured fresh weight inhibition rate (%) (Lolium multiflorum Lamk; [4]): 100.0%
- Measured fresh weight survival rate (%) - E (Lolium multiflorum Lamk; [4]): 0.0%
- Measured fresh weight inhibition rate (%) (Lolium multiflorum Lamk; [5]): 100.0%
- Measured fresh weight survival rate (%) - E (Lolium multiflorum Lamk; [5]): 0.0%
- Measured fresh weight inhibition rate (%) (Lolium multiflorum Lamk; [6]): 100.0%
- Measured fresh weight survival rate (%) - E (Lolium multiflorum Lamk; [6]): 0.0%
- Measured fresh weight inhibition rate (%) (Bromus japonicus; [1]): 94.8%
- Measured fresh weight survival rate (%) - E (Bromus japonicus; [1]): 5.2%
- Measured fresh weight inhibition rate (%) (Bromus japonicus; [2]): 96.9%
- Measured fresh weight survival rate (%) - E (Bromus japonicus; [2]): 3.1%
- Measured fresh weight inhibition rate (%) (Bromus japonicus; [3]): 100.0%
- Measured fresh weight survival rate (%) - E (Bromus japonicus; [3]): 0.0%
- Measured fresh weight inhibition rate (%) (Bromus japonicus; [4]): 100.0%
- Measured fresh weight survival rate (%) - E (Bromus japonicus; [4]): 0.0%
- Measured fresh weight inhibition rate (%) (Bromus japonicus; [5]): 100.0%
- Measured fresh weight survival rate (%) - E (Bromus japonicus; [5]): 0.0%
- Measured fresh weight inhibition rate (%) (Galium aparine; 31.25 g ai/ha): 63.0%
- Measured fresh weight survival rate (%) - E (Galium aparine; 31.25 g ai/ha): 37.0%
- Measured fresh weight inhibition rate (%) (Galium aparine; 62.5 g ai/ha): 84.9%
- Measured fresh weight survival rate (%) - E (Galium aparine; 62.5 g ai/ha): 15.1%
- Measured fresh weight inhibition rate (%) (Galium aparine; 125 g ai/ha): 93.2%
- Measured fresh weight survival rate (%) - E (Galium aparine; 125 g ai/ha): 6.8%
- Measured fresh weight inhibition rate (%) (Galium aparine; 250 g ai/ha): 95.9%
- Measured fresh weight survival rate (%) - E (Galium aparine; 250 g ai/ha): 4.1%
- Measured fresh weight inhibition rate (%) (Galium aparine; 500 g ai/ha): 100.0%
- Measured fresh weight survival rate (%) - E (Galium aparine; 500 g ai/ha): 0.0%
- Measured fresh weight inhibition rate (%) (Lithospermum arvense; 31.25 g ai/ha): 47.8%
- Measured fresh weight survival rate (%) - E (Lithospermum arvense; 31.25 g ai/ha): 52.2%
- Measured fresh weight inhibition rate (%) (Lithospermum arvense; 62.5 g ai/ha): 97.1%
- Measured fresh weight survival rate (%) - E (Lithospermum arvense; 62.5 g ai/ha): 2.9%
- Measured fresh weight inhibition rate (%) (Lithospermum arvense; 125 g ai/ha): 98.6%
- Measured fresh weight survival rate (%) - E (Lithospermum arvense; 125 g ai/ha): 1.4%
- Measured fresh weight inhibition rate (%) (Lithospermum arvense; 250 g ai/ha): 100.0%
- Measured fresh weight survival rate (%) - E (Lithospermum arvense; 250 g ai/ha): 0.0%
- Measured fresh weight inhibition rate (%) (Lithospermum arvense; 500 g ai/ha): 100.0%
- Measured fresh weight survival rate (%) - E (Lithospermum arvense; 500 g ai/ha): 0.0%
- Measured fresh weight inhibition rate (%) (Solanum nigrum; 31.25 g ai/ha): 18.8%
- Measured fresh weight survival rate (%) - E (Solanum nigrum; 31.25 g ai/ha): 81.2%
- Measured fresh weight inhibition rate (%) (Solanum nigrum; 62.5 g ai/ha): 32.5%
- Measured fresh weight survival rate (%) - E (Solanum nigrum; 62.5 g ai/ha): 67.5%
- Measured fresh weight inhibition rate (%) (Solanum nigrum; 125 g ai/ha): 67.1%
- Measured fresh weight survival rate (%) - E (Solanum nigrum; 125 g ai/ha): 32.9%
- Measured fresh weight inhibition rate (%) (Solanum nigrum; 250 g ai/ha): 99.6%
- Measured fresh weight survival rate (%) - E (Solanum nigrum; 250 g ai/ha): 0.4%
- Measured fresh weight inhibition rate (%) (Solanum nigrum; 500 g ai/ha): 100.0%
- Measured fresh weight survival rate (%) - E (Solanum nigrum; 500 g ai/ha): 0.0%
